The values that follow come from US20220177476A1, “Crystal Forms of (S)-4-(8-amino-3-(1-(but-2-ynoyl)-pyrrolidin-2-yl)imidazo[1,5-a]pyrazin-1-yl)-n-(pyridin-2-yl)benzamide” (Acerta Pharma B.V., priority 2015, published 2022).

Read-outs that look alike come from different tables or passages of the source.

The nature of data set [1]: Relative stability of solid forms (water activity, suspension equilibration, storage). The following applies: for Stability at Room Temperature: crystalline forms of the free base. It counts as physicochemical. From the text:
Critical water activity is a measure of the relative thermodynamic stability of Form I in comparison to the trihydrate Form II. […] Suspension equilibration experiments in ethanol-water mixtures, each having a different water activity, affirmed this conclusion. Water activities included in the experiments were maintained at: about 0.35 (ethanol-water ratio of 95:5, PP502-P32), about 0.53 (ethanol-water ratio of 9:1, PP502-P33) and about 0.77 (ethanol-water ratio of 7:3, PP502-P34).
Because the DVS results of Form II indicate reversible moisture sorption-desorption behavior (see above), tests were performed to confirm that storage of the dehydrated Form II sample (i.e., Form IV) at about 60% RH would again lead to the trihydrate form (Form II). […]

The nature of data set [2]: Dynamic vapor sorption (DVS). It counts as physicochemical. The following applies: for hygroscopicity according to the European Pharmacopoeia (EP) classification: weight increase at 80% RH; for water content at the end of the DVS test: by weight. On the procedure: A gravimetric vapor sorption study was run using a standard procedure. Samples were run using a dynamic vapor sorption (DVS) analyzer. Sample sizes were approximately 10 mg. A moisture adsorption-desorption isotherm was performed as outlined below.

Data set [3] can be described thus: Bulk and tapped density of salts. The class given is physicochemical. The following applies: 10 gram sample.
Data set [4] in a line: Aqueous solubility of salts after three hours equilibration without pH adjustment. It counts as physicochemical. The following applies: water. On the procedure: Characterization of fumarate salt, maleate salt, phosphate salt and L-tartrate salt was conducted using ^1H NMR spectroscopy, TG-FTIR, DSC, dynamic vapor sorption, optical microscopy, high-performance liquid chromatography (HPLC) purity, laser diffraction, approximate bulk and tapped density, and aqueous solubility analytical techniques.

For data set [5] the following is noted: for Solubility (mg/mL) after 24 hours equilibration: pure water at 25° C., pH 3.6-4.1.

For `CC#CC(=O)N1CCC[C@H]1c1nc(-c2ccc(C(=O)Nc3ccccn3)cc2)c2c(N)nccn12` [Form III, (S)-4-(8-amino-3-(1-(but-2-ynoyl)pyrrolidin-2-yl)imidazo[1,5-α]pyrazin-1-yl)-N-(pyridin-2-yl)benzamide], the “Stability at Room Temperature” value in data set [1] is recorded as “metastable”. Moreover, in data set [2] (DVS), the “maximum water content (saturation) at about 95% RH” value is “about 8.5%”; the “total weight gain observed between 0% RH and 80% RH” value is recorded as “about 8%”; the “hygroscopicity according to the European Pharmacopoeia (EP) classification” value is “hygroscopic (hygroscopic: ≥2% and <15%)”.

In the case of `CC#CC(=O)N1CCC[C@H]1c1nc(-c2ccc(C(=O)Nc3ccccn3)cc2)c2c(N)nccn12` [Form IV, (S)-4-(8-amino-3-(1-(but-2-ynoyl)pyrrolidin-2-yl)imidazo[1,5-α]pyrazin-1-yl)-N-(pyridin-2-yl)benzamide], in data set [1], the “Stability at Room Temperature” value is “metastable”. In data set [1] (dehydrated Form II sample), the “form after storage at 60% RH for three days (PXRD)” value is on record as “does revert to Form II”.

For the compound `CC#CC(=O)N1CCC[C@H]1c1nc(-c2ccc(C(=O)Nc3ccccn3)cc2)c2c(N)nccn12` [Form V, (S)-4-(8-amino-3-(1-(but-2-ynoyl)pyrrolidin-2-yl)imidazo[1,5-α]pyrazin-1-yl)-N-(pyridin-2-yl)benzamide], the “Stability at Room Temperature” value in data set [1] is given as “metastable”.

Consider `CC#CC(=O)N1CCC[C@H]1c1nc(-c2ccc(C(=O)Nc3ccccn3)cc2)c2c(N)nccn12` [Form VI, (S)-4-(8-amino-3-(1-(but-2-ynoyl)pyrrolidin-2-yl)imidazo[1,5-α]pyrazin-1-yl)-N-(pyridin-2-yl)benzamide], for which, in data set [1], the “Stability at Room Temperature” value is recorded as “metastable”.

Regarding `CC#CC(=O)N1CCC[C@H]1c1nc(-c2ccc(C(=O)Nc3ccccn3)cc2)c2c(N)nccn12` [Form VII, (S)-4-(8-amino-3-(1-(but-2-ynoyl)pyrrolidin-2-yl)imidazo[1,5-α]pyrazin-1-yl)-N-(pyridin-2-yl)benzamide], the “Stability at Room Temperature” value in data set [1] is listed as “metastable”.

Regarding `CC#CC(=O)N1CCC[C@H]1c1nc(-c2ccc(C(=O)Nc3ccccn3)cc2)c2c(N)nccn12` [Form VIII, (S)-4-(8-amino-3-(1-(but-2-ynoyl)pyrrolidin-2-yl)imidazo[1,5-α]pyrazin-1-yl)-N-(pyridin-2-yl)benzamide], in data set [1], the “Stability at Room Temperature” value is recorded as “metastable”.

For `CC#CC(=O)N1CCC[C@H]1c1nc(-c2ccc(C(=O)Nc3ccccn3)cc2)c2c(N)nccn12.O=C(O)/C=C/C(=O)O` [Fumarate, (S)-4-(8-amino-3-(1-(but-2-ynoyl)pyrrolidin-2-yl)imidazo[1,5-α]pyrazin-1-yl)-N-(pyridin-2-yl)benzamide fumarate], in data set [3], the “Bulk density” value was found to be 0.45 g/mL and the “Tapped density” value is recorded as 0.57 g/mL. For the same compound, the “Behavior in DVS: Δm (20-80% RH)” value in data set [2] is on record as ~0.8% (20-80% RH). Further, in data set [2] (DVS), the “maximum water content (saturation) at about 95% RH” value is given as “approximately 6%”; the “water content change between 20% and 80% RH” value is reported as “about 0.8%”. For the same compound, in data set [4], the “Solubility (3 hours)” value is approximately 1800 µg/mL. Besides, the “Solubility (mg/mL) after 24 hours equilibration” value (shortened to “Solubility (mg/mL)”) in data set [5] was found to be 2.1 mg/mL.

Consider `CC#CC(=O)N1CCC[C@H]1c1nc(-c2ccc(C(=O)Nc3ccccn3)cc2)c2c(N)nccn12.O=C(O)C(O)C(O)C(=O)O` [L-Tartrate, (S)-4-(8-amino-3-(1-(but-2-ynoyl)pyrrolidin-2-yl)imidazo[1,5-α]pyrazin-1-yl)-N-(pyridin-2-yl)benzamide L-tartrate], for which, in data set [3], the “Bulk density” value is reported as 0.29 g/mL and the “Tapped density” value was determined as 0.50 g/mL. In addition, in data set [2], the “Behavior in DVS: Δm (20-80% RH)” value is reported as ~0.7% (20-80% RH). In addition, in data set [2] (DVS), the “maximum water content (saturation) at about 95% RH” value is listed as “approximately 5.4%”; the “water content at 50% RH” value is given as “about 4.8%”; the “water content change between 20% and 80% RH” value is on record as “about 0.7%”.

Take `CC#CC(=O)N1CCC[C@H]1c1nc(-c2ccc(C(=O)Nc3ccccn3)cc2)c2c(N)nccn12.O=C(O)/C=C\C(=O)O` [Maleate, (S)-4-(8-amino-3-(1-(but-2-ynoyl)pyrrolidin-2-yl)imidazo[1,5-α]pyrazin-1-yl)-N-(pyridin-2-yl)benzamide maleate]: the “Bulk density” value in data set [3] amounted to 0.35 g/mL. The “Tapped density” value in data set [3] amounted to 0.45 g/mL. Further, the “Behavior in DVS: Δm (20-80% RH)” value in data set [2] is recorded as “fumarate, Δm~0.7%”. Moreover, in data set [2] (DVS), the “maximum water content (saturation) at about 95% RH” value is recorded as “approximately 5.8%”. In addition, the “water content change between 20% and 80% RH” value in data set [2] (DVS) was “about 0.5%”. Besides, the “Solubility (3 hours)” value in data set [4] is 2200 µg/mL. Moreover, the “solubility” value in data set [5] (0.1 N HCl, Sigma #71763, pH after 24 hours 1.8) was determined as 37000 µg/mL; in data set [5] (borate buffer (sample pH9), pH after 24 hours 4.7), 1200 µg/mL; in data set [5] (buffer pH 5, pH after 24 hours 4.8) it was 4300 µg/mL; in data set [5] (citrate buffer pH 3, pH after 24 hours 3.2) it was 8000 µg/mL; in data set [5] (phosphate buffer pH 7, KH2PO4 (sample pH6.8), pH after 24 hours 4.8), 1200 µg/mL; in data set [5] (phosphate buffer pH 7, KH2PO4 (sample pH7.4), pH after 24 hours 5.0) it was 800 µg/mL. Also, the “Solubility (mg/mL)” value in data set [5] turned out to be 2.3 mg/mL.

For `CC#CC(=O)N1CCC[C@H]1c1nc(-c2ccc(C(=O)Nc3ccccn3)cc2)c2c(N)nccn12.O=P(O)(O)O` [Phosphate, (S)-4-(8-amino-3-(1-(but-2-ynoyl)pyrrolidin-2-yl)imidazo[1,5-α]pyrazin-1-yl)-N-(pyridin-2-yl)benzamide phosphate], in data set [3], the “Bulk density” value is recorded as 0.33 g/mL and the “Tapped density” value is 0.48 g/mL. Besides, the “Behavior in DVS: Δm (20-80% RH)” value in data set [2] is ~0.7% (20-80% RH). Further, the “maximum water content (saturation) at about 95% RH” value in data set [2] (DVS) is reported as “approximately 6.6%”. For the same compound, in data set [4], the “Solubility (3 hours)” value turned out to be 9800 µg/mL. For the same compound, the “Solubility (mg/mL)” value in data set [5] was 15.0 mg/mL.

For `CC#CC(=O)N1CCC[C@H]1c1nc(-c2ccc(C(=O)Nc3ccccn3)cc2)c2c(N)nccn12` [amorphous Formula (1), (S)-4-(8-amino-3-(1-(but-2-ynoyl)pyrrolidin-2-yl)imidazo[1,5-α]pyrazin-1-yl)-N-(pyridin-2-yl)benzamide], in data set [2] (DVS), the “total mass gained up to 95% RH” value is recorded as “approximately 13%”; the “total weight gain observed between 0% RH and 80% RH” value is reported as “about 6%”; the “hygroscopicity according to the European Pharmacopoeia (EP) classification” value is “hygroscopic (hygroscopic: ≥2% and <15%)”.

For the compound `CC#CC(=O)N1CCC[C@H]1c1nc(-c2ccc(C(=O)Nc3ccccn3)cc2)c2c(N)nccn12.O=C(O)CC(O)(CC(=O)O)C(=O)O` [citrate salt, (S)-4-(8-amino-3-(1-(but-2-ynoyl)pyrrolidin-2-yl)imidazo[1,5-α]pyrazin-1-yl)-N-(pyridin-2-yl)benzamide citrate], the “form after suspension equilibration in water” value in data set [1] (water at 25° C. for 24 hours) is “conversion to Form III of the free base of Formula (1)”. Besides, the “water content at the end of the DVS test” value in data set [2] (DVS) was “about 7.5%”.

Regarding `CC#CC(=O)N1CCC[C@H]1c1nc(-c2ccc(C(=O)Nc3ccccn3)cc2)c2c(N)nccn12.O=C(O)c1cc(O)ccc1O` [gentisate salt, (S)-4-(8-amino-3-(1-(but-2-ynoyl)pyrrolidin-2-yl)imidazo[1,5-α]pyrazin-1-yl)-N-(pyridin-2-yl)benzamide gentisate], the “water content at the end of the DVS test” value in data set [2] (DVS) was 5.2%.

For `CC#CC(=O)N1CCC[C@H]1c1nc(-c2ccc(C(=O)Nc3ccccn3)cc2)c2c(N)nccn12.O=C(O)C(=O)O` [oxalate salt, (S)-4-(8-amino-3-(1-(but-2-ynoyl)pyrrolidin-2-yl)imidazo[1,5-α]pyrazin-1-yl)-N-(pyridin-2-yl)benzamide oxalate], in data set [2] (DVS), the “maximum water content (saturation) at about 95% RH” value was “about 6.5%” and the “water content at 50% RH” value is “about 5.5%”.
